US5891882A, “Benzopyranopyrrole and benzopyranopyridine α-1 adenergic compounds” (priority 1997, dated 1999)
Counter-ions that a name gives are not always drawn.

Tests used:
[1] = molecular target: T1, α-1A adrenoreceptor (canine prostate smooth muscle) (Canis lupus, UniProt A0A8I3NK63); test: Functional antagonism: inhibition of phenylephrine-induced contraction of canine prostate strips; assay type: cell-based; details: Schild plot
T1 construct: antagonism of phenylephrine-induced contraction (pA2, Schild)
T1 sequence (A0A8I3NK63 1-466): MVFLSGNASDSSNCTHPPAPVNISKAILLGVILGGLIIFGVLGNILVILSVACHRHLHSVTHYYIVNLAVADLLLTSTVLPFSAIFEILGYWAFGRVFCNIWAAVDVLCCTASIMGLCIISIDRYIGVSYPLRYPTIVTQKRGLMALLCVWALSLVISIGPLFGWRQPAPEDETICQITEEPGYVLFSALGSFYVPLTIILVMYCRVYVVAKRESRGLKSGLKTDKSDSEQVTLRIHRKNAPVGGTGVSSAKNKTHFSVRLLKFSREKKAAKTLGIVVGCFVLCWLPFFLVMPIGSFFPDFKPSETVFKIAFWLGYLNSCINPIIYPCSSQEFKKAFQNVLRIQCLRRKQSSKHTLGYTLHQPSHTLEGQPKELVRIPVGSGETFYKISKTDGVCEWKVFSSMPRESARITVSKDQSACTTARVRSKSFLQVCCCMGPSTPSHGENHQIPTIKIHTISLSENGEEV
Source text: Canine prostate strips were used in vitro as previously described (Hieble, J. P., Boyce, Caine, M., Fed Proc., 45: 2609-2614 (1986)), to determine antagonist potencies phenylephrine-induced contractions.
(§1) Functional assays indicative of pharmacologically defined α-1 adrenoreceptors were used to further characterize compounds. Inhibition of phenylephrine (PE)-induced contraction of canine prostate smooth muscle can be correlated with α-1A adrenoreceptor activation. […] For each of these models, agonist dose response curves were repeated against increasing concentrations of test agent to derive a Schild plot [log ([…]) against log (molarity of test agent)] to determine the pA2.
Canine prostate strips were used in vitro as previously described (Hieble, J. P., Boyce, A. J. and Caine, M., Fed. Proc., 45: 2609-2614 (1986)), to determine antagonist potencies against phenylephrine-induced contractions.

[2] = molecular target: T2, α-1B adrenoreceptor (rat spleen) (Rattus norvegicus, UniProt P15823); test: Functional antagonism: inhibition of phenylephrine-induced contraction of rat spleen; assay type: cell-based; details: rat spleen, phenylephrine-induced contraction, Schild plot
T2 construct: from tissue; host or cells: rat spleen
T2 sequence (P15823 1-515): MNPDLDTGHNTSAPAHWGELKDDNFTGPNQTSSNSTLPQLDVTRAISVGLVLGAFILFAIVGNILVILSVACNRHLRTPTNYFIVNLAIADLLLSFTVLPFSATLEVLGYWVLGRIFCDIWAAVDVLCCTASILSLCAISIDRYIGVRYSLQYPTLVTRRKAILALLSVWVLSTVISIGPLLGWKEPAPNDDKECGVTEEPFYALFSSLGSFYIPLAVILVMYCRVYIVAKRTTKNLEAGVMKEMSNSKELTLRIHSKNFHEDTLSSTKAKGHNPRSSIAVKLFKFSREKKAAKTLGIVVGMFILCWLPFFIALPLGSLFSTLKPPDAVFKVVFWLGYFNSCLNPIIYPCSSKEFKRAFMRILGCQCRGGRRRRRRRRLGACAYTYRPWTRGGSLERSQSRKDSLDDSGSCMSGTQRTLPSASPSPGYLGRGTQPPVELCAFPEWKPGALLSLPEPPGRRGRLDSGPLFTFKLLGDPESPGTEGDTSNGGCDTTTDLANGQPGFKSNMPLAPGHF
Source text: as §1

α-1 adrenoreceptor = details: cited from earlier work; for dose limiting side effects: BPH treatment; for urinary flow rates and subjective symptom scores: longer term studies, BPH
[3] = molecular target: T3, α-1 Adrenoceptors (Rat Aorta) (Rattus norvegicus, UniProt P23944); test: Functional antagonism at α-1 adrenoceptors, rat aorta; assay type: cell-based; details: read-out: In Vitro Characterization (pA2) Rat Aorta (converted)
T3 construct: Rat Aorta; from tissue; host or cells: rat aorta
T3 sequence (P23944 1-561): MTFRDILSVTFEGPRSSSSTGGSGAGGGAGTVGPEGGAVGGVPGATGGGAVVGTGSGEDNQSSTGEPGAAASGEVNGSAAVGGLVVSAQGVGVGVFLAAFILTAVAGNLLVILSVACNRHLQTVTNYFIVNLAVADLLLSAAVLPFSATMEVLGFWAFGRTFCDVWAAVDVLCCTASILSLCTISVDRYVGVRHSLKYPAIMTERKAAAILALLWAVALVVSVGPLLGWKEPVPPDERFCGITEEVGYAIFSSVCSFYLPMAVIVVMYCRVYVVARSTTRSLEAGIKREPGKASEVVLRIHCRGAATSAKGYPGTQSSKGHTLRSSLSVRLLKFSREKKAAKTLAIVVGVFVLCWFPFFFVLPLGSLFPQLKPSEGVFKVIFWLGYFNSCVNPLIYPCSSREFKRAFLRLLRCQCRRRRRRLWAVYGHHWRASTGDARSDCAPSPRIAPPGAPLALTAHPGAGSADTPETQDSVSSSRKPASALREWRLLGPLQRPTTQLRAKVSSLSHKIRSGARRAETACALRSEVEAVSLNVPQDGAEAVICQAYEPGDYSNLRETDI
Source text: as §1

SMILES	In Vitro Characterization (pA2) Dog Prostate [1]	In Vitro Characterization (pA2) Rat Spleen [2]	Kb [3]	also measured
COc1cccc2c1OC[C@H]1CN(CCn3c(=O)[nH]c4c(sc5ccccc54)c3=O)C[C@@H]21.Cl (racemic) [Example 67, 3-[2-((±)-cis-6-Methoxy-1,2,3,3a,4,9b-hexahydro-[1]-benzopyrano[3,4-c]pyrrol-2-yl)ethyl]-[1]-benzthieno[3,2-d]pyrimidine-2,4(1H,3H)-dione hydrochloride]	7.33	6.83		
COc1cc2[nH]c(=O)n(CCCCN3C[C@@H]4COc5ccccc5[C@@H]4C3)c(=O)c2cc1OC.Cl (racemic) [Example 81, 3-[4-((±)-cis-1,2,3,3a,4,9b-hexahydro-[1]-benzopyrano[3,4-c]pyrrol-2-yl)butyl]-6,7-dimethoxy-quinazoline-2,4(1H,3H)-dione hydrochloride]		7.41		
COc1cc2nc(N3CCN(C(=O)C4COc5ccccc5O4)CC3)nc(N)c2cc1OC (stereo not shown) [Doxazosin, doxazosin]				dose limiting side effects (α-1 adrenoreceptor): hypotension, dizziness, and muscle fatigue; urinary flow rates and subjective symptom scores (α-1 adrenoreceptor): significant improvements in urinary flow rates and subjective symptom scores; clinical efficacy in BPH (α-1 adrenoreceptor; non-selective α-1 blockers): Clinical efficacy
COc1cccc2c1[C@H]1CN(CCCCn3c(=O)[nH]c4c(sc5cccnc54)c3=O)C[C@H]1CO2 [Example 2, 3-[4-((3aS,9bS)-cis-9-Methoxy-1,2,3,3a,4,9b-hexahydro-[1]-benzopyrano[3,4-c]pyrrol-2-yl)butyl]-pyrido[2',3':4,5]thieno[3,2-d]pyrimidine-2,4(1H,3H)-dione hydrochloride]	7.95			
COc1cccc2c1[C@@H]1CN(CCCCn3c(=O)[nH]c4c(sc5cccnc54)c3=O)C[C@H]1CO2 [Example 3, 3-[4-((3aS,9bR)-trans-9-Methoxy-1,2,3,3a,4,9b-hexahydro-[1]-benzopyrano[3,4-c]pyrrol-2-yl)butyl]-pyrido[2',3':4,5]thieno[3,2-d]pyrimidine-2,4(1H,3H)-dione hydrochloride]	9.43			
COc1cccc2c1[C@@H]1CN(CCCCn3c(=O)[nH]c4c(sc5ncc(Cl)nc54)c3=O)C[C@H]1CO2 [Example 13, 3-[4((3aS,9bR)-trans-9-Methoxy-1,2,3,3a,4,9b-hexahydro-[1]-benzopyrano[3,4-c]pyrrol-2-yl)butyl]-8-chloro-pyrazino[2',3':4,5]thieno[3,2-d]pyrimidine-2,4(1H,3H)-dione hydrochloride]	9.91		40.7 pM	
COc1ccc2sc3c(=O)n(CCCCN4C[C@H]5COc6cccc(OC)c6[C@@H]5C4)c(=O)[nH]c3c2n1 [Example 26, 3-[4-((3aS,9bR)-trans-9-Methoxy-1,2,3,3a,4,9b-hexahydro-[1]-benzopyrano[3,4-c]pyrrol-2-yl)butyl]-8-methoxy-pyrido[2',3':4,5]thieno[3,2-d]pyrimidine-2,4(1H,3H)-dione dihydrochloride]	9.15		66.1 pM	
COc1cccc2c1[C@@H]1CN(CCCCn3c(=O)[nH]c4c(sc5ncccc54)c3=O)C[C@@H]1CO2 [Example 34, hydrochloride]		8.12	646 pM	
COc1cccc2c1[C@@H]1CN(CCCCn3c(=O)[nH]c4c(sc5ncc(-c6ccccc6)nc54)c3=O)C[C@@H]1CO2 [Example 39, 3-[4-((3aR,9bR)-cis-9-Methoxy-1,2,33a,4,9b-hexahydro-[1]-benzopyrano[3,4-c]pyrrol-2-yl)butyl]-8-phenyl-pyrazino[2',3':4,5]thieno[3,2-d]pyrimidine-2,4(1H,3H)-dione hydrochloride]	8.52	6.83	12900 pM	
COc1cccc2c1[C@@H]1CN(CCCCn3c(=O)[nH]c4c(sc5ncccc54)c3=O)C[C@H]1CO2 [Example 44, 3-[4-((3aS,9bR)-trans-9-Methoxy-1,2,3,3a,4,9b-hexahydro-[1]-benzopyrano[3,4-c]pyrrol-2-yl)butyl]-pyrido[3',2':4,5]thieno[3,2-d]pyrimidine-2,4(1H,3H)-dione hydrochloride]		8.35	39.8 pM	
COc1ccc2c(n1)sc1c(=O)n(CCCCN3C[C@H]4COc5cccc(OC)c5[C@@H]4C3)c(=O)[nH]c12 [Example 46, 3-[4-((3aS,9bR)-trans-9-Methoxy-1,2,3,3a,4,9b-hexahydro-[1]-benzopyrano[3,4-c]pyrrol-2-yl)butyl]-7-methoxy-pyrido[3',2':4,5]thieno[3,2-d]pyrimidine-2,4(1H,3H)-dione hydrochloride]		8.12	155 pM	
COc1cccc2c1[C@@H]1CN(CCCCn3c(=O)[nH]c4c(sc5nc(Cl)ccc54)c3=O)C[C@H]1CO2 [Example 47, 3-[4-((3aS,9bR)-trans-9-Methoxy-1,2,3,3a,4,9b-hexahydro-[1]-benzopyrano[3,4-c]pyrrol-2-yl)butyl]-7-chloro-pyrido[3',2':4,5]thieno[3,2-d]pyrimidine-2,4(1H,3H)-dione hydrochloride]		7.95	204 pM	
COc1cccc2c1[C@@H]1CN(CCCCn3c(=O)[nH]c4c(sc5ncc(-c6ccccc6)nc54)c3=O)C[C@H]1CO2 [Example 50, 3-[4-((3aS,9bR)-trans-9-Methoxy-1,2,3,3a,4,9b-hexahydro-[1]-benzopyrano[3,4-c]pyrrol-2-yl)butyl]-8-phenyl-pyrazino[2',3':4,5]thieno[3,2-d]pyrimidine-2,4(1H,3H)-dione hydrochloride]	8.45	6.5	389 pM	
COc1cccc2c1[C@@H]1CN(CCCCn3c(=O)[nH]c4c(sc5c(Cl)nccc54)c3=O)C[C@H]1CO2 [Example 54]		7.31		
COc1cccc2c1[C@@H]1CCN(CCCCn3c(=O)[nH]c4c(sc5cccnc54)c3=O)C[C@H]1CO2 [Example 95, 3-[4-((4aS,10bR)-trans-10-Methoxy-1,3,4,4a,5,10b-hexahydro-2H-[1]-benzopyrano[3,4-c]pyrido-3-yl)butyl]-pyrido[2',3':4,5]thieno[3,2-d]pyrimidine-2,4(1H,3H)-dione dihydrochloride]	8.58			
COc1cccc2c1[C@@H]1CCN(CCCCn3c(=O)[nH]c4c(sc5ncc(Cl)nc54)c3=O)C[C@H]1CO2 [Example 97, 3-[4-((4aS,10bR)-trans-10-Methoxy-1,3,4,4a,5,10b-hexahydro-2H-[1]-benzopyrano[3,4-c]pyrido-3-yl)butyl]-8-chloro-pyrazino[2',3':4,5]thieno[3,2-d]pyrimidine-2,4(1H,3H)-dione dihydrochloride]	8.6			
O=C(NC1CCN(CCc2c[nH]c3ccccc23)CC1)c1ccccc1 [indoramin]				dose limiting side effects (α-1 adrenoreceptor): hypotension, dizziness, and muscle fatigue; urinary flow rates and subjective symptom scores (α-1 adrenoreceptor): significant improvements in urinary flow rates and subjective symptom scores
